Source: patent publication US20230404998A1, “Combination Therapies for Treating Cancer” (ASCENTAGE PHARMA (SUZHOU) CO., LTD., priority 2020, published 2023)
“Also recorded” adds a separate entry of the source. Marks after values point to notes of the source that are not given here.

Key:
[1] = system: Y253H/T315I orthotopic tumor model; assay: In vivo efficacy, Y253H/T315I orthotopic tumor model; parameters: species or system mouse; conditions: ABL001 60 mg/kg, Ponatinib 20 mg/kg, HQP1351 20 mg/kg
Method: (§1) In vivo efficacy was evaluated using the syngeneic mouse model derived from BaF3 cells with T315I and/or compound mutations. Tumor models were established by intravenously injecting tumor cells (1×10^5/mouse) into the caudal vein under sterile conditions. Mice were randomized into control and treatment groups with 8-10 mice per group and start the treatment from the second day post inoculation. The animal body weights were measured twice a week. The antitumor activity curves of test articles were plotted with the treatment time (day) on the X-axis, and corresponding survival rate on the Y-axis. A Log-rank (Mental-cox) test was employed to analyze the statistical significance of any difference between the treatment group and the control group. Prism version 7 (GraphPad Software Inc., San Diego, CA) was used for all statistical analysis and for graphic presentation.

[2] = system: RANCA; assay: Antiproliferative activity in RCC line RANCA; format: cell-based; conditions: Mus musculus; murine RCC line RANCA
[3] = target: VEGFR3 (Homo sapiens, UniProt P35916); assay: Cell-free kinase assay VEGFR3; format: biochemical
[4] = target: VEGFR1 (Homo sapiens, UniProt P17948); assay: Cell-free kinase assay VEGFR1; format: biochemical
[5] = system: E255V/T315I orthotopic tumor model; assay: In vivo efficacy, E255V/T315I orthotopic tumor model; parameters: species or system mouse; conditions: ABL001 60 mg/kg, Ponatinib 20 mg/kg, HQP1351 20 mg/kg
Method: as §1

[6] = system: Ph+ ALL SUP-B15 cells; assay: Cell viability assay (Cell-Titer Glo) in leukemia cell lines; format: cell-based; conditions: 72 hours
Method: After treatment, cell viability was measured by Promega© Cell-Titer Glo®3D Cell Viability Assay luminescence assay kit according to instructions from the manufacturer (Promega, Madison, WI, USA, Cat #G7571). Luminescence signal was detected using a BioTek Synergy H1 Hybrid Multi-Mode (Microplate) Reader (BioTek, Shanghai). Cellular proliferative (i.e. viability) curves were plotted and anti-proliferation IC50 values were calculated using Graphpad Prism version 6.0 software (GraphPad Software, San Diego, CA USA).

[7] = system: RAG; assay: Antiproliferative activity in RCC line RAG; format: cell-based; conditions: Mus musculus; murine RCC line RAG
[8] = system: RANCA tumor tissues; assay: Tumor-infiltrating lymphocyte assays in RANCA tumor tissues; format: in vivo, mouse
[9] = system: human umbilical vein endothelial cells; assay: Antiproliferative effects on human umbilical vein endothelial cells; format: cell-based
[10] = system: FGFR; assay: Phosphorylation of FGFR and downstream proteins in cancer cells; format: cell-based
[11] = system: T315I orthotopic tumor model; assay: In vivo efficacy, T315I orthotopic tumor model; parameters: species or system mouse; conditions: ABL001 60 mg/kg, Ponatinib 20 mg/kg, HQP1351 20 mg/kg
Method: as §1

[12] = target: VEGFR2 (Homo sapiens, UniProt P35968); assay: Cell-free kinase assay VEGFR2; format: biochemical
[13] = system: F317L/T315I orthotopic tumor model; assay: In vivo efficacy, F317L/T315I orthotopic tumor model; parameters: species or system mouse; conditions: ABL001 60 mg/kg, Ponatinib 20 mg/kg, HQP1351 20 mg/kg
Method: as §1

[14] = system: VEGFR, SRC, Akt and extracellular signal-regulated kinases in vascular endothelial cells; assay: Phosphorylation of VEGFR, SRC and downstream proteins in vascular endothelial cells; format: cell-based
[15] = target: T1, BCR-ABL single or compound mutations (BaF3 cells) (Homo sapiens, UniProt P00519, cells depend on it, form not given); assay: Cell based anti-proliferation studies, BaF3 cells with BCR-ABL single or compound mutations (summary); parameters: species or system murine
T1 construct: fused on or other part: P11274 (Breakpoint cluster region protein)
Method: (§2) The anti-proliferative effect was determined by a water-soluble tetrazolium (WST)-based assay using Cell Counting Kit-8 (CCK-8, #D3100L4057, Shanghai life ilab bio technology co., LTD, China). Cells were seeded in 96-well plates and treated with different concentrations of test articles. […] Each treatment was tested in triplicates. The plate was then cultured at 37° C. with 5% CO2 for 72 hours. At the end of treatments, 20 μl/well of CCK-8 reagent was directly added to each wells. The plate was then incubated at 37° C. with 5% CO2 for 2-4 h. The OD value was detected at 450 nm on a microplate reader (SpectraMax I3X, Molecular Devices, US). IC50 values were calculated with Graphpad Prism 7.0 software using nonlinear regression (curve fitting) type data analysis. For combination effect assay, the cells viability was normalized using the mean OD value of triplicated wells for the single agent control.
A series of cell lines expressing BCR-ABL single or compound mutations were constructed based on BaF3 murine pro-B cell line.

[16] = target: BaF3(Bcr-Abl) V299L-F39V (Homo sapiens, UniProt P00519, V299L/F359V, cells depend on it); conditions: read-out: Anti-proliferation (IC50)
Method: as §2

[17] = target: BaF3(Bcr-Abl) T35I-F311I (Homo sapiens, UniProt P00519, F311I/T315I, cells depend on it); conditions: read-out: Anti-proliferation (IC50)
Method: as §2

[18] = target: BaF3(Bcr-Abl) F359V (Homo sapiens, UniProt P00519, F359V, cells depend on it); conditions: read-out: Anti-proliferation (IC50)
Method: as §2

[19] = target: BaF3(Bcr-Abl) V299L (Homo sapiens, UniProt P00519, V299L, cells depend on it); conditions: read-out: Anti-proliferation (IC50)
Method: as §2

[20] = target: BaF3(Bcr-Abl) E453K (Homo sapiens, UniProt P00519, E453K, cells depend on it); conditions: read-out: Anti-proliferation (IC50)
Method: as §2

[21] = target: BaF3(Bcr-Abl) T315I-M351T (Homo sapiens, UniProt P00519, T315I/M351T, cells depend on it); conditions: read-out: Anti-proliferation (IC50)
Method: as §2

[22] = system: p-SRC and PD-L1 expression in H460 and A549 cells; assay: Western blot / RT-PCR of p-SRC and PD-L1 expression in NSCLC cell lines; format: cell-based, human
Method: Cells were treated with the indicated concentrations and washed twice with cold PBS. Whole cell extracts were collected in RIPA lysis buffer (Santa Cruz Biotechnology, Germany), and protein concentration of the lysates was measured using a BCA Protein Assay Kit (ThermoFisher, USA). The protein samples were electrophoresed through a 10% SDS-PAGE gel and transferred to a polyvinylidene difluoride (PVDF) membrane (Roche, USA). After blocking, membranes were probed with primary antibodies (1:1000) against SRC, p-SRC, PD-L1, GAPDH, 0-tubulin (Cell Signaling Technology, USA) followed by washing and incubation with a secondary antibody (1:5000) conjugated to horseradish peroxidase (Santa Cruz Biotechnology, USA). Protein bands were visualized by applying a chemiluminescent reagent (Pierce ECL kit, Thermo Fisher Scientific, USA) and protein level were quantified by Image Lab (Bio-Rad Laboratory, USA).
Total cellular RNA was extracted by Trizol (Invitrogen, USA) for mRNA analysis. RNA was reverse-transcribed to cDNA profile through using the Transcriptor First Strand cDNA Synthesis kit (Roche Applied Science, USA) and then Real time PCR reactions were performed using the FastStart SYBR Green Master (ROX) reagent (Roche Applied Science, USA) according to the manufacturer's instructions. […]

[23] = system: PD-L1 in RCC cells; assay: PD-L1 expression in RCC cells; format: cell-based

Cc1ccc(C(=O)Nc2ccc(CN3CCN(C)CC3)c(C(F)(F)F)c2)cc1C#Cc1cnc2[nH]ncc2c1 [HQP1351, 3-(2-(1H-pyrazolo[3,4-b]pyridin-5-yl)ethynyl)-4-methyl-N-(4-((4-methylpiperazin-1-yl)methyl)-3-(trifluoromethyl)phenyl)-benzamide]
Median survival [1]: 18.5 | Survival prolongation (%) [1]: 8.82% | Survive/Total @ 24 [1]: 0/8 | IC50 [2]: 141 nM | IC50 [3]: 4.1 nM | IC50 [4]: 4.2 nM | Median survival [5]: 27.0**** | Survival prolongation (%) [5]: 28.57% | Survive/Total @ D26 [5]: 0/10 | Proliferation of Ph+ leukemia cells including SUP-B15 [6]: selectively inhibited the proliferation of Ph+ cells; also recorded: potently inhibits the proliferation | IC50 [7]: 53 nM | Immune cell numbers in RANCA tumor tissues [8]: increased numbers of cytotoxic T cells (CTL, CD8^+) and natural-killer cells | Antiproliferative effects compared to lenvatinib [9]: more potent antiproliferative effects | Phosphorylation of FGFR and downstream proteins [10]: inhibiting phosphorylation of FGFR and downstream proteins | Median survival [11]: 27.0**** | Survival prolongation (%) [11]: 28.57% | Survive/Total @ D43 [11]: 0/10 | IC50 [12]: 6.1 nM | Median survival [13]: 25.0****^$ | Survival prolongation (%) [13]: 42.86% | Survive/Total @ 24 [13]: 0/8 | Phosphorylation of VEGFR, SRC, and downstream proteins Akt and extracellular signal-regulated kinases [14]: inhibiting phosphorylation of VEGFR, SRC, and downstream proteins | Anti-proliferative effectiveness against compound mutations compared with other TKIs ([15]; BCR-ABL compound mutations): more effective than ponatinib, asciminib and other TKIs | GI50 ([15]; read-out: IC50 values toward BCR-ABL single or compound mutations, range over BaF3 BCR-ABL mutant cell lines): 6 to 300 nM | GI50 [16]: 32 ± 4 nM | GI50 [17]: 78 ± 46 nM | GI50 [18]: 50 ± 16 nM | GI50 [19]: 8 ± 4 nM | GI50 [20]: 3 nM | GI50 [21]: 67 ± 44 nM | PD-L1 and p-SRC levels at different time points ([22]; 2 μM HQP-1351): time-dependent suppression of PD-L1 and p-SRC levels | PD-L1 expression and p-SRC phosphorylation, differing concentrations ([22]; NSCLC cell lines, 24 h, Western blot): decreased PD-L1 expression as well as p-SRC phosphorylation in a concentration-dependent manner | Expression of PD-L1 in RCC cells [23]: reduced expression of PD-L1
